Measurements published in patent US20250134813A1, “COMPOUNDS, LIPSOMES, AND DRUG CARRIERS FOR DRUG DELIVERY” (priority 2023, published 2025).
≈ marks a conversion by molar mass, not a printed value.

How the values were obtained:
[1] = tested on: CHL cells; test: Evaluation of cell toxicity (CCK8 cell viability); format: cell-based
Procedure: CHL cells are seeded in a 96-well culture plate at a density of 4000 cells per well and incubated overnight at 37° C. in a 5% CO2 incubator. The culture medium is then replaced with 100 μL of medium containing different concentrations of ALC-0315, SM-102, and compounds prepared according to embodiments 1 and 2 of the present invention (specific concentrations are shown in FIG. 1), and cells are further incubated for 48 hours. Subsequently, 10 μL of CCK8 solution is added to each well and incubated for an additional 4 hours in the cell culture incubator. After the incubation, the absorbance at 450 nm is measured using a microplate reader, and cell viability is calculated. The IC50 values are calculated using GraphPad Prism software (version 8.01).

[2] = tested on: Fluc mRNA expression; test: In vivo expression of LNPs@Fluc mRNA via intramuscular injection (bioluminescence, IVIS); set-up: species or system BALB/c mouse; settings: 20 μg FLuc mRNA per mouse, 8 hours after administration, vs MC3, ALC-0315, SM-102
Procedure: (§1) Furthermore, the ability of LNPs@mRNA prepared using compounds of the present invention to deliver mRNA in vivo was investigated. The inventors chose firefly luciferase as the reporter gene to label mRNA, referred to as Fluc mRNA. Following the method outlined in Example 3, LNPs@Fluc mRNA were prepared using different ionizable lipids (Compound 8, MC3, ALC-0315, or SM-102), referred to as LNP@Fluc mRNA formulation, MC3@Fluc mRNA, ALC-0315@Fluc mRNA, and SM-102@Fluc mRNA, respectively. These formulations were administered via intravenous injection (Step 2.1 of this example) and intramuscular injection (Step 2.2 of this example) to investigate the ability of LNPs@mRNA formulations prepared using compounds of the present invention to express mRNA in vivo and the distribution of expression.
The formulations LNPs@Fluc mRNA (Compound 8), the positive control formulation MC3@Fluc mRNA, ALC-0315@Fluc mRNA, and SM-102@Fluc mRNA, abbreviated as follows, were prepared as described above.
(§2) Each formulation's mRNA concentration was adjusted to 0.1 mg/mL using PBS solution, and the osmolarity of each formulation was adjusted to isotonic. […] The bioluminescence intensity of the entire body of the live mice was measured using an IVIS instrument with an exposure time of 60 s. Total flux of each organ was calculated after imaging. […]

[3] = tested on: Fluc mRNA expression; test: In vivo expression of LNPs@Fluc mRNA via intravenous injection (organ bioluminescence, IVIS); set-up: species or system NIH mouse; settings: intravenous (tail vein), 10 μg FLuc mRNA per mouse, 6 hours after administration; vs MC3, ALC-0315, SM-102
Procedure: as §1, with “expression. […]” for “expression.”
as §2, with “0.05” for “0.1”, “The heart, liver, spleen, lungs, and kidneys were rapidly dissected, and the” for “The”, “each excised organ” for “the entire body of the live mice”

[4] = tested on: RBD of the wild-type Delta strain S protein; test: Immunostimulatory efficacy of LNPs@Delta S-2P mRNA (serum antibody titers by ELISA); format: in vivo, Balb/c mice; settings: for GMT: i.m.
[5] = Day 14, dose 0.1 μg, LNPs@Delta S-2P mRNA prepared with the lipid
[6] = Day 14, dose 1 μg, LNPs@Delta S-2P mRNA prepared with the lipid
[7] = Day 14, dose 5 μg, LNPs@Delta S-2P mRNA prepared with the lipid
[8] = Day 28, dose 0.1 μg, two administrations 14 days apart
[9] = Day 28, dose 1 μg, two administrations 14 days apart
[10] = Day 28, dose 5 μg, two administrations 14 days apart
[11] = Table 3: 1 μg each time, two administrations 14 days apart, serum 28 days after the initial immunization
[12] = CHL cells, 48 hours incubation, CCK8, cell viability

SMILES | IC50 ([1]; CHL, 48 h) [µg/mL] | GMT [4, 11] | also measured
CCCCCCCCC(CCCCCC)CNC(=O)NCCCCCCN(CCCCO)CCCCCCNC(=O)NCC(CCCCCC)CCCCCCCC (stereo not drawn) [Compound 8] | 166 (≈ 202 µM) | 325,099.7 | mRNA expression capability based on the total bioluminescence emitted [2]: stronger mRNA expression capability compared to the three positive control materials; mRNA expression capability based on the total bioluminescence emitted [3]: stronger mRNA expression capability compared to the three positive control materials; Compound 8 GMT/SM-102 GMT ([4]; Day 14, dose 0.1 μg): 6.3; GMT [4, 5]: 4525.5; Compound 8 GMT/SM-102 GMT ([4]; Day 14, dose 1 μg): 14.3; GMT [4, 6]: 32254.0; Compound 8 GMT/SM-102 GMT ([4]; Day 14, dose 5 μg): 4.5; GMT [4, 7]: 81274.9; Compound 8 GMT/SM-102 GMT ([4]; Day 28, dose 0.1 μg): 3.6; GMT [4, 8]: 64508.0; Compound 8 GMT/SM-102 GMT ([4]; Day 28, dose 1 μg): 4.0; GMT [4, 9]: 325099.7; Compound 8 GMT/SM-102 GMT ([4]; Day 28, dose 5 μg): 2.5; GMT [4, 10]: 819200.0
CCCCCCCCCCCOC(=O)CCCCCN(CCO)CCCCCCCC(=O)OC(CCCCCCCC)CCCCCCCC [SM-102, reference compound] |  | 81,274.9 | IC50 [1, 12]: 55.9 µg/mL (≈ 78.7 µM); GMT [4, 5]: 712.7; GMT [4, 6]: 2262.7; GMT [4, 7]: 18101.9; GMT [4, 8]: 18101.9; GMT [4, 9]: 81274.9; GMT [4, 10]: 325099.7
CCCCCCCCC(CCCCCC)CNC(=O)NCCCCCCN(CCCCCO)CCCCCCNC(=O)NCC(CCCCCC)CCCCCCCC (stereo not drawn) [Compound 9] | 152 (≈ 182 µM) | 452,334.1 | 
CCCCCCCCC(CCCCCC)CNC(=O)NCCCCCCN(CCCCCCCO)CCCCCCNC(=O)NCC(CCCCCC)CCCCCCCC (stereo not drawn) [Compound 10] | 153 (≈ 177 µM) | 299,812.1 | 
CCCCCCCCC(CCCCCC)CNC(=O)NCCCCCCCCCCCCN(CCCCO)CCCCCCCCCCCCNC(=O)NCC(CCCCCC)CCCCCCCC (stereo not drawn) [Compound 13] | 136 (≈ 137 µM) | 210,944.0 | 
CCCCCCCCC(CCCCCC)CNC(=O)NCCCCCCCCCCCCN(CCCCO)CCCCCCNC(=O)NCC(CCCCCC)CCCCCCCC (stereo not drawn) [Compound 15] | 147 (≈ 162 µM) | 400,363.5 | 
CCCCCCCCCCCCNC(=O)NCCCCCCN(CCCCO)CCCCCCNC(=O)NCC(CCCCCC)CCCCCCCC (stereo not drawn) [Compound 21] | 119 (≈ 156 µM) | 208,203.5 | 
CCCCCCCCC(CCCCCC)CNC(=O)NCCCCCCN(CCCO)CCCCCCNC(=O)NCC(CCCCCC)CCCCCCCC (stereo not drawn) [Compound 7] | 126 (≈ 155 µM) | 341,832.9 | 
CCCCCCCCC(CCCCCC)CNC(=O)NCCCCCN(CCCCO)CCCCCNC(=O)NCC(CCCCCC)CCCCCCCC (stereo not drawn) [Compound 11] | 137 (≈ 173 µM) | 473,681.3 | 
CCCCCCCCC(CCCCCC)CNC(=O)NCCCCCCCCCN(CCCCO)CCCCCCCCCNC(=O)NCC(CCCCCC)CCCCCCCC (stereo not drawn) [Compound 12] | 195 (≈ 215 µM) | 449,359.1 | 
CCCCCCCCC(CCCCCC)C(=O)OCCCCCCN(CCCCO)CCCCCCOC(=O)C(CCCCCC)CCCCCCCC (stereo not drawn) [ALC-0315, reference compound] |  |  | IC50 [1, 12]: 29.9 µg/mL (≈ 39 µM)
CCCCCCCCC(CCCCCCCC)CNC(=O)NCCCCCCN(CCCCO)CCCCCCNC(=O)NCC(CCCCCCCC)CCCCCCCC [Compound 17] | 174 (≈ 198 µM) | 299,707.3 | 
CCCCCCC(CCCCCC)CNC(=O)NCCCCCCN(CCCCO)CCCCCCNC(=O)NCC(CCCCCC)CCCCCC [Compound 16] | 134 (≈ 174 µM) | 244,238.6 | 
